{
  "source": "patent US12558342B2",
  "about": "“2-[2-({12,12-dimethyl-4-oxo-6-phenyl-3,11-dioxatricyclo[8.4.0.0,2,7]tetradeca-1,5,7,9-tetraen-8-yl}oxy)acetamido]benzamide and derivatives as inhibitor of clock:bmal1 interaction for the treatment of circadian rhythm diseases and disorders” (KOC UNIVERSITESI, priority 2019, dated 2026)",
  "key": {"[1]": {"biological_target": "T1, CLOCK-F80A-K220A and BMAL1 interaction (Homo sapiens, UniProt O15516, F80A/K220A)", "T1 construct": "expressed in transfected cells; host or cells: HEK 293T", "T1 sequence (O15516 1-846 F80A/K220A)": "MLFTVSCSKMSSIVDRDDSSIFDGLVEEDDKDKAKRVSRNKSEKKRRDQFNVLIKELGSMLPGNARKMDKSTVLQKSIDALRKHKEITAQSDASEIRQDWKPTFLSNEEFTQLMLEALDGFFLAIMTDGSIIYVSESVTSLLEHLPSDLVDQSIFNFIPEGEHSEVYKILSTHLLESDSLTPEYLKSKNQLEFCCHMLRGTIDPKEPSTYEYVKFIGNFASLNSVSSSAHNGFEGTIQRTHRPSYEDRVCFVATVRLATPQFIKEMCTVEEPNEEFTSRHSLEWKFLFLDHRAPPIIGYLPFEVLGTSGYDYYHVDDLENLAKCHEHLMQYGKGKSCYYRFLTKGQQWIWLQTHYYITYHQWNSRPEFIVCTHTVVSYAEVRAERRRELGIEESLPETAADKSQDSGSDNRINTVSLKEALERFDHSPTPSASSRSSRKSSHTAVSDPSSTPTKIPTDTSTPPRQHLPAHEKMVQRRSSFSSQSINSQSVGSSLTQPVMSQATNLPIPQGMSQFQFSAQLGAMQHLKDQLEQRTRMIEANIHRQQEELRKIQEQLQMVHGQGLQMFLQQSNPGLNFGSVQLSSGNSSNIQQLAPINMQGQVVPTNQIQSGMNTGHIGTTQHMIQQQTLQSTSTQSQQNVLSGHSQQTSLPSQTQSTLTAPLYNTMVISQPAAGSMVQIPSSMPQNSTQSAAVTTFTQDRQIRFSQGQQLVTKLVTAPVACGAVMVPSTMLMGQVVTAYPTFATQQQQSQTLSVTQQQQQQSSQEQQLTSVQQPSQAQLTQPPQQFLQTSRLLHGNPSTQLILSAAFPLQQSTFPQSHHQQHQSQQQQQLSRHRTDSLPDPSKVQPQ", "experiment": "Co-immunoprecipitation of FLAG-CLOCK-F80A-K220A and BMAL1", "assay_type": "biochemical", "details": "40 μM", "procedure": "HEK 293T cells co-expressing wild type or F80A-K220A mutant FLAG-tagged Clock together with tag-free Bmal1 were lysed with ice-cold lysis buffer (50 mM Tris-HCl PH 7.7, 150 mM NaCl, 0.1% Triton X-100, 1 mM PMSF and protease inhibitor cocktail) and centrifuged at 15000×g at 4° C. for 20 minutes. DMSO and different concentrations of CLK8 were added to the whole cell lysate. The mixtures were incubated with anti-FLAG M2 affinity gel (Sigma-Aldrich) at 4° C. overnight with continuous mixing. After three wash steps, bound proteins were eluted with Laemmli buffer heated at 95° C. for 7 minutes. CLOCK and BMAL1 were detected by monoclonal anti-FLAG M2 antibody (Sigma-Aldrich) and anti-BMAL1 (Santa Cruz Biotechnology) respectively. The amount of co-precipitated BMAL1 was normalized with the amount of precipitated CLOCK.\nHEK 293T cells co-expressing wild type or F80A-K220A mutant FLAG-tagged Clock together with tag-free Bmal1 were lysed with ice-cold lysis buffer (50 mM Tris-HCl pH 7.7, 150 mM NaCl, 0.1% Triton X-100, 1 mM PMSF and protease inhibitor cocktail) and centrifuged at 15000×g at 4° C. for 20 minutes. DMSO and different concentrations of CLK8 were added to the whole cell lysate. […] CLOCK and BMAL1 were detected by monoclonal anti-FLAG M2 antibody (Sigma-Aldrich) and anti-BMAL1 (Santa Cruz Biotechnology) respectively. […]"}, "[2]": {"biological_target": "T2, NAV2 (Homo sapiens, UniProt Q8IVL1)", "T2 construct": "endogenous in cells; host or cells: HEK 293T", "T2 sequence (Q8IVL1 whole entry)": "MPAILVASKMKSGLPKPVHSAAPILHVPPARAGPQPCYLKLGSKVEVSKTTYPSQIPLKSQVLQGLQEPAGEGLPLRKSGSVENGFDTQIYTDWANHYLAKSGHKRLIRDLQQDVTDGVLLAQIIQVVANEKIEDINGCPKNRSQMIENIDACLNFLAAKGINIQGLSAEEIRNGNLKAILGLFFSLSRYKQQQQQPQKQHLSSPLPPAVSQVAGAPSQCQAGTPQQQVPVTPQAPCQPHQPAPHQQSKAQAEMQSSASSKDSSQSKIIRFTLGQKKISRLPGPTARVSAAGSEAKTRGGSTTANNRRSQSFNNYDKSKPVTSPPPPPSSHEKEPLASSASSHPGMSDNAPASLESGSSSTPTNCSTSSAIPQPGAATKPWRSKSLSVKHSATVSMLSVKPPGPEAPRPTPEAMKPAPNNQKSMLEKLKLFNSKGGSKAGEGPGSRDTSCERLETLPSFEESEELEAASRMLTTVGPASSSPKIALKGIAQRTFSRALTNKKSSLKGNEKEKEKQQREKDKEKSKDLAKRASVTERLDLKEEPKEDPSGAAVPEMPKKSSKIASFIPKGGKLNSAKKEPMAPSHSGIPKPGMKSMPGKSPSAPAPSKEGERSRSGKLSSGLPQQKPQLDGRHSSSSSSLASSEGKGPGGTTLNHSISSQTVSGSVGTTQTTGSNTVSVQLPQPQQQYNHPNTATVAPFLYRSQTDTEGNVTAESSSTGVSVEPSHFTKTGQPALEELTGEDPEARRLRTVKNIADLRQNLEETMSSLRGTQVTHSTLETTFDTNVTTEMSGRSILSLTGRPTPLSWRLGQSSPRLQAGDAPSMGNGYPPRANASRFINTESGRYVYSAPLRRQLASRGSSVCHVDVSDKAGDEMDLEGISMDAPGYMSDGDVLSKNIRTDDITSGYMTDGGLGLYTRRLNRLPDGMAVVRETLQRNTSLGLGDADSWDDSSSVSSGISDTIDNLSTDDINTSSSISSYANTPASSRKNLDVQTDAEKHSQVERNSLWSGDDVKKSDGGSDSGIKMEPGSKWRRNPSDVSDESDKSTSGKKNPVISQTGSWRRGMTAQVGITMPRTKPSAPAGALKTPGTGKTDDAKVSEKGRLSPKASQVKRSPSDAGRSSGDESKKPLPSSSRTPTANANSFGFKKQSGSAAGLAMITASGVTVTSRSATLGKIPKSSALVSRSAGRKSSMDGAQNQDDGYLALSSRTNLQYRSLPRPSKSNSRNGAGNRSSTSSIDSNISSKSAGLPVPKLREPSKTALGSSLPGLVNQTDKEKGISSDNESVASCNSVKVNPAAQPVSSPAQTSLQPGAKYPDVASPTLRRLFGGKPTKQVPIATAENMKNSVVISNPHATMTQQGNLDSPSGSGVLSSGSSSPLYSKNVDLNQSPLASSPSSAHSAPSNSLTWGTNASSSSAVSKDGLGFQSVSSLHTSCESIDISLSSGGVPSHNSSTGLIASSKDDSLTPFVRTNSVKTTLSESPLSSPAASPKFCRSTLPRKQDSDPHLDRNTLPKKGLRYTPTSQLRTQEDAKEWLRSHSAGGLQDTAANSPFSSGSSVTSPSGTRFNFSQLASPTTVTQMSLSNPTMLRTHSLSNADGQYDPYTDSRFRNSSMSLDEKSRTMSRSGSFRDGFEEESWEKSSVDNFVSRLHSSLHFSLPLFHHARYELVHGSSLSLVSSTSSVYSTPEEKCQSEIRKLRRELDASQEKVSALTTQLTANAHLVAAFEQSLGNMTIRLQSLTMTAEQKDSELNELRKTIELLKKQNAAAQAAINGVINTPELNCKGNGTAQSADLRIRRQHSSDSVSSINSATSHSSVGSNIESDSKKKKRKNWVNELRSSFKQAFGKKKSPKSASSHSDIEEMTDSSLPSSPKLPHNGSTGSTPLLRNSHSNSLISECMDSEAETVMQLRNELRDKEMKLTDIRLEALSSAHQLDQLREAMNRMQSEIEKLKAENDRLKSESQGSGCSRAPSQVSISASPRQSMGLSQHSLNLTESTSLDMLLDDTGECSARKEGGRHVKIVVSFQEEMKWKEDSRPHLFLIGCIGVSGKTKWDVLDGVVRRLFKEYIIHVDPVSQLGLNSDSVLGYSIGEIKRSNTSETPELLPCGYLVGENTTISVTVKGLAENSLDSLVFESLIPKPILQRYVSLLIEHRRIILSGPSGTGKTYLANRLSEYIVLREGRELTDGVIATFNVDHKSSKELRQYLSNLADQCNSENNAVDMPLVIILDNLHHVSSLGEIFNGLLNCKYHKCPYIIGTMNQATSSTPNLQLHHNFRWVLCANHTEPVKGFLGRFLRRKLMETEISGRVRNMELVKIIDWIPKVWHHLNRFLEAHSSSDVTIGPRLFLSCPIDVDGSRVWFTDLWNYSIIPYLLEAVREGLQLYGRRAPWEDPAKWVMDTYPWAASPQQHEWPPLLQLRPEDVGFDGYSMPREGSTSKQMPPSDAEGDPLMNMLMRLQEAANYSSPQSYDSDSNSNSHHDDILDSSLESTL", "experiment": "LC-MS/MS of pull-down precipitates, NAV2", "assay_type": "binding", "details": "Competitor 0 μM", "procedure": "HEK293T cells were transiently transfected with tag-free hsClock and mBmal1. After 48 hours of transfection, cells were harvested and whole cell lysate was prepared with ice-cold lysis buffer (50 mM Tris-HCl pH 7.4, 2 mM EDTA, 1 mM MgCl2, 0.2% NP-40, 1 mM sodium orthovanadate, 1 mM sodium fluoride and protease inhibitor cocktail) followed by centrifugation at 7000×g at 4° C. for 10 minutes. Lysate was diluted with ice-cold 2× binding buffer (100 mM Tris-HCl pH 7.4, 300 mM NaCl, 0.2% NP-40, 2 mM sodium orthovanadate, 2 mM sodium fluoride, and protease inhibitor cocktail) 27. The lysate was divided into three fractions to be treated with either DMSO, or 20 μM of bitoinylated-CLK8 (bait) with or without 200 μM CLK8 (competitor). […]\nThe next step was to check for off-targets of CLK8. […] Since the amount of precipitated endogenous CLOCK was insufficient to be detected in LC-MS/MS, whole cell lysate of HEK 293T cells overexpressing CLOCK and BMAL1 were used for LC-MS/MS. We determined proteins that potentially bind to CLK8 by utilizing a minimum threshold for peptide spectrum matches and coverage equal to those of the main target, CLOCK. We also excluded proteins that have been detected in negative controls of the CRAPome database (32), assuming them as abundant sticky proteins. […] BMAL1 was detected in lower amounts when a competitor was present. […]"}},
  "data": [
    {"smiles": "CC1(C)CCc2c(cc(OCC(=O)Nc3ccccc3C(N)=O)c3c(-c4ccccc4)cc(=O)oc23)O1", "note": "[CLK8, 2-[2-({12,12-dimethyl-4-oxo-6-phenyl-3,11-dioxatricyclo [8.4.0.0,2,7]tetradeca-1,5,7,9-tetraen-8-yl}oxy)acetamido] benzamide]", "values": [
      {"measurement": "interaction between CLOCK-F80A-K220A and BMAL1", "setting": "[1]", "value": "not affected"},
      {"measurement": "Peptide spectrum matches, NAV2", "setting": "[2]", "value": 263}
    ]}
  ]
}
